According to patent US4518586A, “GRF Analogs III” (The Salk Institute for Biological Studies, priority 1983, dated 1985):
Square brackets hold non-standard residues; d marks the D form. Peptide text beside a SMILES is read from it. Nle = CCCC[C@H](N)C(=O)O

Assays:
[1] = system: cells of rat pituitary glands; experiment: in vitro assay of growth hormone release from cultured rat pituitary cells, side-by-side with hpGRF(1-40)-OH standard; format: cell-based; conditions: for Comparison %: GH release at equimolar concentrations relative to synthetic hpGRF(1-40)-OH standard (100%), incubation 3 to 4 hours, ir GH by radioimmunoassay
Experimental: To determine the effectiveness of the various synthetic peptides to promote the release of growth hormone, in vitro assays are carried out using synthetic hpGRF(1-40)-OH as a standard in side-by-side comparison with equimolar concentrations of the various other analogs and fragments synthesized. Cultures are used which include cells of rat pituitary glands removed some three to five days previously. Cultures which are considered optimal for the secretion of growth hormone are used for the comparative testing, in the general manner described in Vale et al. Endocrinology, 91, 562-572 (1972) and as more particularly described in Vale et al. Endocrinology, (1983), in press. Incubation with the substance to be tested is carried out for 3 to 4 hours, and aliquots of the culture medium are removed and processed to measure their contents in immunoreactive GH(ir GH) by a well-characterized radioimmunoassay.

[2] = system: freely running normal male rats; experiment: in vivo GH secretion after injection through indwelling catheter in FLA-63-pretreated rats; parameters: species or system rat; conditions: male rats pretreated with FLA-63
Experimental: In addition to the in vitro tests for secretion of growth hormone, in vivo experiments inject the synthetic peptides through an indwelling catheter into freely running normal male rats after pretreating them with FLA-63, a dopamine hydroxylase inhibitor that suppresses spontaneous GH secretion without affecting the response to exogenous GRF. Blood samples are taken through the same catheter immediately prior to and 5 and 20 minutes after injections. […] Dosages between about 100 nanograms and about 50 micrograms of these peptides per Kg. of body weight are considered to be effective in causing GH secretion.

Question: How did the Comparison % [1] turn out when `CCCC[C@H](NC(=O)[C@@H](NC(=O)[C@@H](CCC(=O)O)NC(=O)[C@H](Cc1c[nH]cn1)NC(=O)[C@H](CC(C)C)NC(=O)[C@H](CC(C)C)NC(=O)[C@H](CCCCN)NC(=O)[C@H](CCCNC(=N)N)NC(=O)[C@H](C)NC(=O)[C@H](Cc1ccc(O)cc1)NC(=O)[C@H](CC(C)C)NC(=O)[C@H](CCC(N)=O)NC(=O)CNC(=O)[C@H](CC(C)C)NC(=O)[C@@H](NC(=O)[C@H](CCCNC(=N)N)NC(=O)[C@H](CCCNC(=N)N)NC(=O)[C@H](Cc1ccc(O)cc1)NC(=O)[C@H](CO)NC(=O)[C@H](CO)NC(=O)[C@@H](NC(=O)[C@H](Cc1ccccc1)NC(=O)[C@@H](NC(=O)[C@H](C)NC(=O)[C@H](CC(=O)O)NC(=O)[C@H](C)NC(=O)[C@@H](N)Cc1c[nH]cn1)[C@@H](C)CC)[C@@H](C)O)[C@@H](C)CC)[C@@H](C)CC)C(=O)N[C@@H](CC(N)=O)C(=O)N[C@@H](CCCNC(=N)N)C(N)=O` [[D-Glu^25, Nle^27]-rGRF(1-29)-NH2, H-His-Ala-Asp-Ala-Ile-Phe-Thr-Ser-Ser-Tyr-Arg-Arg-Ile-Leu-Gly-Gln-Leu-Tyr- Ala-Arg-Lys-Leu-Leu-His-D-Glu-Ile-Nle-Asn-Arg-NH2] (H-HADAIFTSSYRRILGQLYARKLLH[dE]I[Nle]NR-NH2) was run?
Answer: 125%

Question: Which results are given for `CCCC[C@H](NC(=O)[C@@H](NC(=O)[C@H](CCC(=O)O)NC(=O)[C@H](Cc1c[nH]cn1)NC(=O)[C@@H](CC(C)C)NC(=O)[C@H](CC(C)C)NC(=O)[C@H](CCCCN)NC(=O)[C@H](CCCNC(=N)N)NC(=O)[C@H](C)NC(=O)[C@H](Cc1ccc(O)cc1)NC(=O)[C@H](CC(C)C)NC(=O)[C@H](CCC(N)=O)NC(=O)CNC(=O)[C@H](CC(C)C)NC(=O)[C@@H](NC(=O)[C@H](CCCNC(=N)N)NC(=O)[C@H](CCCNC(=N)N)NC(=O)[C@H](Cc1ccc(O)cc1)NC(=O)[C@H](CO)NC(=O)[C@H](CO)NC(=O)[C@@H](NC(=O)[C@H](Cc1ccccc1)NC(=O)[C@@H](NC(=O)[C@H](C)NC(=O)[C@H](CC(=O)O)NC(=O)[C@H](C)NC(=O)[C@@H](N)Cc1c[nH]cn1)[C@@H](C)CC)[C@@H](C)O)[C@@H](C)CC)[C@@H](C)CC)C(=O)N[C@@H](CC(N)=O)C(=O)N[C@@H](CCCNC(=N)N)C(N)=O` [[D-Leu^23, Nle^27]-rGRF(1-29)-NH2, H-His-Ala-Asp-Ala-Ile-Phe-Thr-Ser-Ser-Tyr-Arg-Arg-Ile-Leu-Gly-Gln-Leu-Tyr- Ala-Arg-Lys-Leu-D-Leu-His-Glu-Ile-Nle-Asn-Arg-NH2] (H-HADAIFTSSYRRILGQLYARKL[dL]HEI[Nle]NR-NH2)?
Answer: Comparison % [1]: 160%; duration compared with rGRF(1-29)-NH2 ([2]; GH levels in blood): substantially longer duration; stimulation of the secretion of pituitary GH (GH levels in blood) ([2]; blood samples prior to and 5 and 20 minutes after injection, radioimmunoassay): powerful stimulators of the secretion of pituitary GH

Question: [D-Leu^23, Nle^27 ]-hpGRF(1-29)-NH2 was tested. Which maximum effective concentration ([1]; in vitro GH secretion) did it give?
Answer: about 1 nanomolar
